In paper PMC4774911, “Biochemical Screening of Five Protein Kinases from Plasmodium falciparum against 14,000 Cell-Active Compounds” (PLoS ONE, 2016):
Where two headings read alike, the source gives them in different places.

Legend:
[1] = molecular target: T1, Plasmodium falciparum calcium-dependent protein kinase 1 (CDPK1) (Plasmodium falciparum, UniProt P62344); assay: CDPK1 Kinase-Glo ATP-consumption screen and dose-response; type: biochemical; settings: hits below 1 uM; read-out: CDPK1 IC50
T1 construct: 6-Histidine (N); made in house
In short: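 ATP consumption by recombinant P. falciparum CDPK4 or CDPK1 measured as residual ATP by Kinase-Glo luminescence, with 40 μM Syntide-2 substrate and 90 min incubation stopped with 5 mM EGTA. Single-point screen at 1 μM final, followed by dose-response; no-substrate wells as negative control.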

[2] = test system: DD2; set-up: method as in downloaded from ChEMBL; settings: ref downloaded from ChEMBL; cited from earlier work
[3] = molecular target: T2, Plasmodium falciparum protein kinase 6 (PK6) (Plasmodium falciparum, UniProt Q8IDW1); assay: biochemical; settings: hits below 1 uM; read-out: PK6 IC50
T2 construct: 6-Histidine (N); made in house
T2 sequence (Q8IDW1 1-305): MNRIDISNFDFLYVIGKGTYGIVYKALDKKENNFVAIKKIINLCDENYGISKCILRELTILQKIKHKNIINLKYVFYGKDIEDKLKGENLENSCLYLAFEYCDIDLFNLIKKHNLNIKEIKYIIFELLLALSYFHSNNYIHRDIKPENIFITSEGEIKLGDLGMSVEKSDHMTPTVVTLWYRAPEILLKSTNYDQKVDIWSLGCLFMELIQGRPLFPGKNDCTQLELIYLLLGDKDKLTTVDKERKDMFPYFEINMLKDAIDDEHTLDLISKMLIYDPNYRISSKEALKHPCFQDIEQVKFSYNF

[4] = test system: P. falciparum 3D7 cells; settings: 3D7, cited from earlier work
[5] = test system: HepG2 cells; settings: cited from earlier work
[6] = test system: 3D7 PFLDH; set-up: method as in downloaded from ChEMBL; settings: ref downloaded from ChEMBL; cited from earlier work
[7] = test system: 3D7 PFLDH; set-up: method as in F.J. Gamo et al., Nature 2010; concentration or dose not given beside the values; settings: downloaded from ChEMBL, ref F.J. Gamo et al., Nature 2010; cited from earlier work
[8] = molecular target: PKG (Plasmodium falciparum, UniProt Q8I719); assay: PKG IC50 (supplementary data file); type: biochemical
Source text: Supplement pone.0149996.s003.xls, sheet "combined_1_sorted"

[9] = test system: DD2; set-up: method as in F.J. Gamo et al., Nature 2010; settings: downloaded from ChEMBL, ref F.J. Gamo et al., Nature 2010; cited from earlier work
[10] = molecular target: T3, Plasmodium falciparum calcium-dependent protein kinase 4 (CDPK4) (Plasmodium falciparum, UniProt Q8IBS5); assay: CDPK4 Kinase-Glo ATP-consumption screen and dose-response; type: biochemical; settings: hits below 1 uM
T3 construct: 6-Histidine (N); made in house
T3 sequence (Q8IBS5 1-528): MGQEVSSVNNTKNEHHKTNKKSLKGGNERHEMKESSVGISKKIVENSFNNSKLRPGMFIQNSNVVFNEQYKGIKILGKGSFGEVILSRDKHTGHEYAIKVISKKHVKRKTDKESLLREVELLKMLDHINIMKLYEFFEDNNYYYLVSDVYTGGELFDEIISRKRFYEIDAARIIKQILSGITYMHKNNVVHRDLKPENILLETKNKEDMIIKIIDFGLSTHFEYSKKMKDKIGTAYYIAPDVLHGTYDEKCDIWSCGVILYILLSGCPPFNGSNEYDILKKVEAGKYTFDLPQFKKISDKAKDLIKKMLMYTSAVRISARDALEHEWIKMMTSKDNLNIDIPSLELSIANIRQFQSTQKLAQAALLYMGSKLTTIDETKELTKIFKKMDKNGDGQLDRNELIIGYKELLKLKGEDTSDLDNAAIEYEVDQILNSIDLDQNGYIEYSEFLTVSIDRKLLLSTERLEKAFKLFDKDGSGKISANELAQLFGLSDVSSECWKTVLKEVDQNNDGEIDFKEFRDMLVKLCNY
Procedure: Biochemical assays were performed in white 384-well plates (Nunc). Liquid transfers were done manually with 8-channel pipets. Compounds were initially tested in a single-point screen (final concentration 1 μM). […] The catalytic activity of each kinase was considered proportional to ATP consumed, as determined from measurements of residual [ATP] with the luciferase-based reagent Kinase-Glo (Promega) following incubation. Luminescence (proportional to residual [ATP]) was measured on the plate readers FLx800 (BioTek Instruments, Winooski, VT, USA) and MicroBeta^2 (PerkinElmer, Waltham, MA, USA). Incubation times were chosen to ensure near-complete ATP depletion in the absence of inhibition, thus maximizing the difference in signal between inhibited and uninhibited wells.
40 μM Syntide-2 was used as a substrate; BKI-1 [14] was used as a control inhibitor, while reaction mixtures lacking Syntide-2 were included as an additional negative control. Incubation time was 90 minutes. Reactions were terminated by adding excess EGTA (5 mM), which sequesters Ca^2+ and halts calcium-dependent kinase activity.

[11] = HEPG2, ref downloaded from ChEMBL
[12] = downloaded from ChEMBL, ref F.J. Gamo et al., Nature 2010
[13] = HepG2, downloaded from ChEMBL, ref F.J. Gamo et al., Nature 2010

T1 sequence (P62344 whole entry): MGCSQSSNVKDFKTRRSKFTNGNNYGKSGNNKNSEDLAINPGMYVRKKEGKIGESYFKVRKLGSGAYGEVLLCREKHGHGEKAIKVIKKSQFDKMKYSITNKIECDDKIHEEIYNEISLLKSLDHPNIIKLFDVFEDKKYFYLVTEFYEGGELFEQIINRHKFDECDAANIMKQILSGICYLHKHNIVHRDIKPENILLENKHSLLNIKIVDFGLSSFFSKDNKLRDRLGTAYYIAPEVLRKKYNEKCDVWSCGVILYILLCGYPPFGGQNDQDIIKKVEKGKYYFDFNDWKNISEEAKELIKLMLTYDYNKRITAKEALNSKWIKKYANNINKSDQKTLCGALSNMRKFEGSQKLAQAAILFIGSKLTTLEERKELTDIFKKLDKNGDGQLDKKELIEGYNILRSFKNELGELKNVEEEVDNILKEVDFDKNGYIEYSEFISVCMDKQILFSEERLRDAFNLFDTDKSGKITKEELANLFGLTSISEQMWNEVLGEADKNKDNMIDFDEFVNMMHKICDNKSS
Sequence of PKG (Q8I719 whole entry): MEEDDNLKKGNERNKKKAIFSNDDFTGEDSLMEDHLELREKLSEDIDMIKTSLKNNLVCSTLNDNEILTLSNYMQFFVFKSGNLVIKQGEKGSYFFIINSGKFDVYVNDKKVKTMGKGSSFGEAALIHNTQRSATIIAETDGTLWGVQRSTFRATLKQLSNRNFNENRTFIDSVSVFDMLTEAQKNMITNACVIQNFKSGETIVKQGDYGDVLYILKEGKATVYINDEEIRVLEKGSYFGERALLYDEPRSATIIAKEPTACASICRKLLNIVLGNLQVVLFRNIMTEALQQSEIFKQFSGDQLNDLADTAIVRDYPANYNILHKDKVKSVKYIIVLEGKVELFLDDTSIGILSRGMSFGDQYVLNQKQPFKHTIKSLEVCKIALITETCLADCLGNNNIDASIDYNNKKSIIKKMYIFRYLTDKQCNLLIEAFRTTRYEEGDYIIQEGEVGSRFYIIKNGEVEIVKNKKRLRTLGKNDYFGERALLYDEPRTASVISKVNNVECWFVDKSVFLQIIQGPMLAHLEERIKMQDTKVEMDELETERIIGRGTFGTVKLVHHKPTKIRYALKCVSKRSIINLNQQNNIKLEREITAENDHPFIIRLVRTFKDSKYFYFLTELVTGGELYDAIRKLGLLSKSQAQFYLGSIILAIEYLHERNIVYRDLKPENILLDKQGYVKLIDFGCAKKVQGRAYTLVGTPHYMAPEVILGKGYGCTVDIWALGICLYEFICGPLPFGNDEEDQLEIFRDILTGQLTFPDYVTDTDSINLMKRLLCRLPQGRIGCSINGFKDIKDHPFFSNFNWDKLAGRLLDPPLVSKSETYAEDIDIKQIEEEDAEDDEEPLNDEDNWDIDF

Structure (SMILES) | IC50 [1] | PCT_INHB_DD2 [2] | IC50 [3] | PCT_IHB_3D7 ([4]; ref downloaded from ChEMBL) | pXC50_3D7 ([4]; ref downloaded from ChEMBL) | PCT_INHIB_HEPG2 [5, 11] | PCT_INHIB_3D7_PFLDH [6] | PCT_INHIB_3D7_PFLDH [7] | IC50 [8] | PCT_INHB_DD2 [9] | PCT_IHB_3D7 [4, 12] | pXC50_3D7 [4, 12] | PCT_INHIB_HEPG2 [5, 13] | IC50 [10]
NCCNC(=O)c1ccc(-c2cnc3[nH]cc(-c4ccc(C(N)=O)cc4)c3c2)cc1 [TCMDC-132359] | 24 nM | 98 | 931 nM | 99 | 6.7676 | 2 | 0 | – | – | – | – | – | – | –
NCCNS(=O)(=O)c1ccc(-c2ccnc3[nH]c(-c4ccncc4)cc23)cc1.O=C(O)C(F)(F)F [TCMDC-133364] | 422 nM | 95 | 207 nM | 96 | 6.076 | 0 | 3 | – | – | – | – | – | – | –
Cn1cc(-c2ccnc3[nH]c(-c4cccc(CNC5CCC(O)CC5)c4)cc23)cn1.O=C(O)C(F)(F)F (stereo not shown) [TCMDC-133805] | 46 nM | 82 | 177 nM | 95 | 6.044 | 48 | 2 | – | – | – | – | – | – | –
CN(C)Cc1cccc(-c2cc3c(-c4cnn(C)c4)c(Cl)cnc3[nH]2)c1 [TCMDC-134147] | 402 nM | 21 | 128 nM | 96 | 6.043 | 75 | 0 | – | – | – | – | – | – | –
Cc1cccc(Nc2nc(N[C@@H]3CCCNC3)nc3cc[nH]c(=O)c23)c1.O=C(O)C(F)(F)F [TCMDC-134835] | 23 nM | – | – | – | – | – | – | 1% | 422 nM | 98% | 99% | 6.166 | 55% | 76 nM
Cc1cccc(Nc2nc(NCCCCN)nc3cc[nH]c(=O)c23)c1.O=C(O)C(F)(F)F [TCMDC-134946] | 566 nM | – | – | – | – | – | – | 0% | 1580 nM | 97% | 98% | 6.135 | 34% | 166 nM
COc1c(CN2CCOCC2)cccc1-c1cc2c(-c3ccc(C(=O)O)c(C(C)C)c3)ccnc2[nH]1.O=C(O)C(F)(F)F [TCMDC-135049] | – | 90 | 695 nM | 98 | 6.1293 | 44 | 0 | – | – | – | – | – | – | –
COc1c(CN2CCCC2)cccc1-c1cc2c(-c3ccc(C(=O)O)c(C(C)C)c3)ccnc2[nH]1.O=C(O)C(F)(F)F [TCMDC-135050] | – | 98 | 541 nM | 99 | 6.357 | 56 | 0 | – | – | – | – | – | – | –
O=C(O)C(F)(F)F.O=c1[nH]ccc2nc(N[C@@H]3CCNC3)nc(Nc3cc(Cl)cc(Cl)c3)c12 [TCMDC-135052] | 33 nM | – | – | – | – | – | – | 0% | 486 nM | 99% | 100% | 6.132 | 99% | 446 nM
NCCCNc1nc(Nc2cccc(C(N)=O)c2)c2c(=O)[nH]ccc2n1.O=C(O)C(F)(F)F [TCMDC-135053] | 750 nM | – | – | – | – | – | – | 0% | 7330 nM | 49% | 99% | 6.226 | 9% | 967 nM
NS(=O)(=O)c1cccc(Nc2nc(N[C@@H]3CCNC3)nc3cc[nH]c(=O)c23)c1.O=C(O)C(F)(F)F [TCMDC-135057] | 83 nM | – | – | – | – | – | – | 0% | 1850 nM | 98% | 99% | 6.027 | 7% | 135 nM
CCn1c(-c2nonc2N)nc2c(-c3cc4ccccc4s3)ncc(C(=O)N3CCC(N)C3)c21.O=C(O)C(F)(F)F (stereo not shown) [TCMDC-135281] | – | – | – | – | – | – | – | 5% | 6940 nM | 66% | 98% | 6.06 | 99% | 89 nM
NS(=O)(=O)c1ccc(Nc2nccc(-c3c(-c4cccc(NC(=O)c5c(F)cccc5F)c4)nn4ccccc34)n2)cc1 [TCMDC-135528] | 48 nM | 89 | 140 nM | 93 | 6.118 | 83 | 0 | – | – | – | – | – | – | –
CCn1c(-c2nonc2N)nc2c(-c3ccccc3)ncc(OCCCNCCCN3CCOCC3)c21.O=C(O)C(F)(F)F [TCMDC-135858] | 42 nM | – | – | – | – | – | – | 0% | 126 nM | 91% | 100% | 6.174 | 28% | 38 nM
CCn1c(-c2nonc2N)nc2c(-c3cccc(Cl)c3)ncc(OCCCNCCc3c[nH]cn3)c21.O=C(O)C(F)(F)F [TCMDC-135919] | 138 nM | – | – | – | – | – | – | 0% | 2210 nM | 98% | 100% | 6.007 | 16% | 46 nM
O=C(NC1CC1)c1ccc(Nc2nccc(-c3c(-c4cccc(NC(=O)c5c(F)cccc5F)c4)nn4ccccc34)n2)cc1 [TCMDC-136002] | 26 nM | 96 | – | 94 | 6.386 | 84 | 0 | – | > 10000 nM | – | – | – | – | –
Cl.NCCCOc1cnc(-c2ccccc2)c2nc(-c3nonc3N)n(CCc3ccccc3)c12 [TCMDC-136216] | 47 nM | – | – | – | – | – | – | 0% | > 10000 nM | 86% | 93% | 5.895 | 56% | –
CS(=O)(=O)CCNCc1cccc(-c2ccc3c(Nc4ccc(Oc5cccnc5)cc4)ccnc3c2)c1 [TCMDC-138488] | 966 nM | 99 | – | 100 | 6.847 | 27 | 4 | – | – | – | – | – | – | –
c1cncc(Oc2ccc(Nc3ccnc4cc(-c5cccc(CNCCN6CCOCC6)c5)ccc34)cc2)c1 [TCMDC-138492] | 705 nM | 99 | – | 100 | 6.952 | 14 | 4 | – | – | – | – | – | – | –
CN(C)CCNCc1cccc(-c2ccc3c(Nc4ccc(Oc5ccccn5)cc4)ccnc3c2)c1 [TCMDC-138493] | 845 nM | 100 | – | 99 | 6.633 | 27 | 2 | – | – | – | – | – | – | –
